The values that follow come from US5250542A, “Peripherally selective piperidine carboxylate opioid antagonists” (Eli Lilly and Company, priority 1992, dated 1993).

For one assay, the target named is T1, opioid receptor (Mus musculus, UniProt P42866).
T1 construct: Five CF-1 male mice (Charles River, Portage, Mich.); from tissue; host or cells: living CF-1 male mice (in vivo test; endogenous receptor)
Description: mouse writhing analgesis test: block of morphine-induced analgesia. It counts as in vivo, CF-1 male mice. Further details: unit not given here. As to conditions: dose of antagonist that reduced the inhibition of writhing produced by 1.25 mg/kg morphine sulfate to 50%; subcutaneous, 20 min before acetic acid. The procedure:
In order to determine in vivo opioid receptor antagonism, the mouse writhing analgesis test was used. Test compounds were measured for their ability to block morphine-induced analgesia.
Five CF-1 male mice (Charles River, Portage, Mich.), weighing approximately 20 g after being fasted overnight, were observed simultaneously for the writhing response. The writhing response was defined as a contraction of the abdominal musculature, followed by the extension of the hind limbs, and was induced by the intraperitoneal adminstration of 0.6% acetic acid in a volumne of 1 ml/100 g body weight. The observation period was 10 min. in duration, beginning 5 min. after injection of acetic acid. The percent inhibition of writhing was calculated from the average number of writhes in the control (non-drug) group. Each data point is the mean (±standarderror) for five mice. The ED50 was defined as the dose of agonist that inhibited mean writhing by 50%. […] Each mouse was only used once. All drugs were administered subcutaneously (1 ml/100 g bwt) 20 min. before the injection of acetic acid.
A general note: An intraperitoneal irritant provokes the stretching counted in writhing tests.

For assay [1], the target named is T2, peripheral opioid receptors (Mus musculus, UniProt P42866).
T2 construct: Mice maintained (6 mice/cage) on 0.01M saccharin water with 1 g/1 morphine sulfate; from tissue; host or cells: living morphine-maintained mice (in vivo test; endogenous receptor)
T2 sequence (P42866 whole entry): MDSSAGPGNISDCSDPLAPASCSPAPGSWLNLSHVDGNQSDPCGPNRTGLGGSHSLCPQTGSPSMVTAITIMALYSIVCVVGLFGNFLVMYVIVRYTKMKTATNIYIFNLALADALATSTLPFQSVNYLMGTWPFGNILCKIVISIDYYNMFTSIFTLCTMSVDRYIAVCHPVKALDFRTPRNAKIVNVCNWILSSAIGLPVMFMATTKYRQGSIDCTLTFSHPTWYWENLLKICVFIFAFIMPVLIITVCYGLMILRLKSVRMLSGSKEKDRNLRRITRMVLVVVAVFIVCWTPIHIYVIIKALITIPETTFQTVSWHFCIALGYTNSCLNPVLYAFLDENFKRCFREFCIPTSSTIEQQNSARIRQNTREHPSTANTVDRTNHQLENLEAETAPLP
Description: precipitated diarrhea in morphine-maintained mice (peripheral opioid activity) and comparison with the writhing test. The class given is in vivo. The conditions noted are these: for Ratio (AD50 mouse writhing test / ED50 mouse diarrhea test): higher ratio = greater relative antagonism of peripheral opioid receptors; for ED50: mouse, 0.5 h, morphine-maintained mice, antagonist subcutaneous or oral, 30 min observation. How it is done: Determinations of peripheral opioid activity were conducted. Mice maintained (6 mice/cage) on 0.01M saccharin water with 1 g/1 morphine sulfate for a minimum of 10 days with mice averaging 3.0^+ g water/mouse/day for at least three days are used as subjects. The morphine water was removed 45 min. prior to injection with the proposed opioid antagonist. Initial testing consisted of 5 mice/dose of compound. The antagonist was given by the subcutaneous or oral, route of administration,and the mice were placed in 11-14"×4 7/12 I.D. clear plastic cylinders with white paper towels used for a floor.
The mice were then monitored visually for 30 minutes post-injection for the presence of jumping and of diarrhea. Jumping was scored as positive if at least one jump occurred in 30 min. Diarrhea was scored as positive when feces were moist enough to stain the white paper at the base of the cylinder. After 30 minutes of testing, the mice were placed back in original cages, put back on morphine water, and not tested again for 48 hrs. Lower doses of the antagonist compounds were tested until threshold doses for diarrhea were determined. Diarrhea is a peripherally mediated sign of precipitated opiate abstinence.
The extent of the effect on peripheral activity compared to central activity of the present compounds can-be determined by comparing the AD50 for the mouse writhing test with the ED50 for the mouse diarrhea test. The higher the ratio, the greater the relative antagonism of the peripheral opioid receptors by a particular compound.

In another assay the target is T3, mu receptor (Rattus norvegicus, UniProt P33535).
T3 construct: rat whole brain minus cerebellum for mu was homogenized; from tissue; host or cells: brain of male Sprague Dawley rats, whole brain minus cerebellum, homogenate fraction
T3 sequence (P33535 whole entry): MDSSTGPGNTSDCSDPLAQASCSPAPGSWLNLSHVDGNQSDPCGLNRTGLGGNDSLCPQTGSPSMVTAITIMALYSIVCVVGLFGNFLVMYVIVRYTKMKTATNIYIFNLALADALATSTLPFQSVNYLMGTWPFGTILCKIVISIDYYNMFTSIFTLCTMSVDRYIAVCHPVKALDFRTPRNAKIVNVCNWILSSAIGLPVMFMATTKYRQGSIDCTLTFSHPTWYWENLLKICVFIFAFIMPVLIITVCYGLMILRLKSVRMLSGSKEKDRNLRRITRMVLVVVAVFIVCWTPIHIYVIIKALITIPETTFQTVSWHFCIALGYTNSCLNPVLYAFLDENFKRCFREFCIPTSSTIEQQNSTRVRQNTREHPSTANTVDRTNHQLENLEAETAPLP
In words: opioid receptor binding assay, [3H] NAL (tritiated naloxone), mu receptor. Details: species or system rat (Male Sprague Dawley), brain minus cerebellum. As to conditions: for inhibition at 0.01 µM / inhibition at 0.1 µM: 20 min. How it is done: This assay was conducted by the following procedure.
Male Sprague Dawley rats for mu site experiments were sacrificed via decapitation and the brains were removed. The brain tissue, rat whole brain minus cerebellum for mu was homogenized in a Teflon and glass tissue homogenizer. A supernatant I, pellet IV, fraction was frozen in a nitrogen freezer at 1.33 g/ml concentration and stored for not longer than five weeks prior to use. Pellets were rehydrated with physiological buffer prior to use.
The reaction was initiated by the addition of the resuspended tissue which had been preincubated at 37° C. for 20 minutes. The reaction mixture was incubated in a 37° C. water bath for 20 minutes. The reaction was terminated by rapid filtration, (Brandel Cell Harvestor), through Whatman GF/B glass filters that had been presoaked in Krebs-Hepes buffer pH 7.4. The filters were then washed 2x with 5 ml of ice cold Krebs-Hepes buffer pH 7.4. Washed filters were placed in scintillation vials and 10 ml RedySolv, (Brandel), was added and samples counted in a Searle D-300 beta counter. Means and standard error statistics were calculated for triplicate experimental determinations in certain cases. The incubation time for the reaction mixture was 20 minutes at 37° C.
Ki values were calculated using a minitab statistical program according to the following formula: [formula] wherein IC50 is the concentration at which 50% of the ^3 H ligand is displaced by the test compounds and KD is the dissociation constant for the ^3 H ligand at the receptor site. KD can be determined as described by Bennett, "Methods in Binding Studies", Neurotransmitter Receptor Binding, Yamamura, et al., ed., p. 57-90, Raven Press, N.Y. (1978) incorporated herein by reference.
In the Table, column 1 sets forth the Example Number of the compound evaluated, column 2 the Ki value in nanomolar (nM) at the mu receptor and columns 3 and 4 the percent displacement by the test compound at the indicated concentration, i.e., 10 nm or 100 nm.

Where [2] appears, read: read-out: % displacement at 10 nM, 10 nM test compound, [3H] naloxone 0.5 nM.
The mark [3] stands for this setting: read-out: % displacement at 100 nM, 100 nM test compound, [3H] naloxone 0.5 nM.
[4] abbreviates: 10 nM test compound, [3H] naloxone 0.5 nM, read-out: % displacement at 10 nM.
[5] abbreviates: 100 nM test compound, [3H] naloxone 0.5 nM, read-out: % displacement at 100 nM.

Where a name gives a salt, the structure may show the parent alone. Read-outs that look alike come from different tables or passages of the source. Bounds are passed on as bounds.

T1 sequence (P42866 whole entry): as the sequence (P42866 whole entry) above

`CCCNC(=O)CNC(=O)C(Cc1ccccc1)CN1CC[C@@](C)(c2cccc(O)c2)[C@@H](C)C1` (stereo partly drawn) [Example 49, N-2-propylamino-2-oxoethyl]-3-[4-(3-hydroxyphenyl)-3,4-dimethyl-1-piperidinyl]-2-phenylmethyl propanamide monohydrate hydrochloride]: the AD50 at opioid receptor turned out to be 6.08. For the same molecule, in assay [1], the “Ratio (AD50 mouse writhing test / ED50 mouse diarrhea test)” value is given as 61 and it took a dose of 0.1 mg/kg to reach the 50% effect level (ED50). Also, the inhibition constant (Ki) (as a rule, a dissociation constant, usually derived from enzyme kinetics or from competition with a known ligand) on mu receptor came out at 540 pM. The inhibition at 0.01 µM at mu receptor (setting [2]) was determined as 98%. Further, at mu receptor (setting [3]), the inhibition at 0.1 µM is 100%.

Consider `CCc1noc(CNC(=O)C(Cc2ccccc2)CN2CC[C@@](C)(c3cccc(O)c3)[C@@H](C)C2)n1` (relative stereo) [Example 71, 3-[4-(3-hydroxyphenyl)-3,4-dimethyl1-piperidinyl]-2-(phenylmethyl)-N-[(3-ethyl-1,2,4-oxadiazol-5-yl)methyl]propanamide], for which the AD50 on opioid receptor was found to be 2.1. In addition, in assay [1], the “Ratio (AD50 mouse writhing test / ED50 mouse diarrhea test)” value stood at 11 and the ED50 (usually the dose that gives a 50% effect, or the effect in half of the subjects) was 0.19 mg/kg. The Ki at mu receptor is 710 pM. For the same molecule, at mu receptor (setting [2]), the inhibition at 0.01 µM is 81%. For the same molecule, on mu receptor (read-out: % displacement at 100 nM), the inhibition at 0.1 µM stood at 94%.

With `CNC(=O)CCCNC(=O)C(CCN1CC[C@@](C)(c2cccc(O)c2)[C@@H](C)C1)C1CCCCC1` (relative stereo) [Example 24, N-methyl-4-[[4-[4-(3-hydroxyphenyl)-3,4-dimethyl-1-piperidinyl]-2-cyclohexyl-1-oxobutyl]amino]butanamide monohydrochloride monohydrate], the AD50 at opioid receptor is on record as above 40. Besides, in assay [1], the “Ratio (AD50 mouse writhing test / ED50 mouse diarrhea test)” value is on record as above 400 and the 50% effect level (ED50) was put at a dose of 0.1 mg/kg. Further, the Ki at mu receptor is 450 pM. Further, the inhibition at 0.01 µM at mu receptor (setting [2]) is 100%. The inhibition at 0.1 µM on mu receptor (setting [3]) was determined as 100%.

On opioid receptor, `CNC(=O)COC(=O)CNC(=O)C(Cc1ccccc1)CN1CC[C@@](C)(c2cccc(O)c2)[C@@H](C)C1` (relative stereo) [Example 88] came in with an AD50 of 13.5. In assay [1], the “Ratio (AD50 mouse writhing test / ED50 mouse diarrhea test)” value was determined as 193 and the 50% effect level (ED50) was put at a dose of 0.07 mg/kg. The inhibition at 0.01 µM at mu receptor (setting [4]) was found to be 93%. In addition, the inhibition at 0.1 µM on mu receptor (setting [5]) is 99%.

`C[C@H]1CN(CC(CC2CCCCC2)C(=O)NCC(N)=O)CC[C@@]1(C)c1cccc(O)c1` (relative stereo) [Example 33, 2-[[3-[4-(3-hydroxyphenyl)-3,4-dimethyl-1-piperidinyl]-2-(cyclohexylmethyl)-1-oxophenyl]amino]acetamide monohydrochloride]: the AD50 on opioid receptor is reported as 10.2. In assay [1], the “Ratio (AD50 mouse writhing test / ED50 mouse diarrhea test)” value is recorded as 60 and the median effective dose (ED50) is 0.17 mg/kg. The molecule further displayed a Ki at mu receptor of 1190 pM. Also, the inhibition at 0.01 µM at mu receptor (setting [2]) turned out to be 95%. Moreover, the inhibition at 0.1 µM at mu receptor (setting [3]) was 100%.

`CNC(=O)CNC(=O)C(CC1CCCCC1)CN1CC[C@@](C)(c2cccc(O)c2)[C@@H](C)C1` (relative stereo) [Example 32, N-[2-methylamino-2-oxoethyl]-3-[4-(3-hydroxphenyl)-3,4-dimethyl(-1-piperidinyl]-2-cyclohexylmethylpropanamidemonohydrochloride]: the AD50 on opioid receptor is 7.3. For the same molecule, in assay [1], the “Ratio (AD50 mouse writhing test / ED50 mouse diarrhea test)” value was 45 and it took a dose of 0.16 mg/kg to reach the 50% effect level (ED50). At mu receptor, the Ki was 720 pM. For the same molecule, the inhibition at 0.01 µM at mu receptor (setting [2]) turned out to be 97%. Also, the inhibition at 0.1 µM on mu receptor (setting [3]) worked out at 100%.

At opioid receptor, `C[C@H]1CN(CCC(C(=O)NCCC(N)=O)C2CCCCC2)CC[C@@]1(C)c1cccc(O)c1` (relative stereo) [Example 17, monohydrochloride] showed an AD50 above 40. Besides, in assay [1], the “Ratio (AD50 mouse writhing test / ED50 mouse diarrhea test)” value is recorded as above 667 and the 50% effective dose (ED50) was determined as 0.06 mg/kg. The Ki at mu receptor turned out to be 430 pM. The inhibition at 0.01 µM on mu receptor (setting [2]) was determined as 97%. The inhibition at 0.1 µM on mu receptor (setting [3]) is 100%.

Regarding `CCNC(=O)CNC(=O)C(CCN1CC[C@@](C)(c2cccc(O)c2)[C@@H](C)C1)C1CCCCC1` (relative stereo) [Example 22, N-[2-(ethylamino)-2-oxoethyl]-4-[4-(3-hydroxyphenyl)-3,4-dimethyl-1-piperidinyl]-2-cyclohexyl butanamide hydrochloride], the AD50 at opioid receptor is on record as above 40. In assay [1], the “Ratio (AD50 mouse writhing test / ED50 mouse diarrhea test)” value was above 500 and the 50% effective dose (ED50) worked out at 0.08 mg/kg. In addition, on mu receptor, the inhibitory constant (Ki) is 330 pM. For the same molecule, the inhibition at 0.01 µM at mu receptor (setting [2]) was determined as 100%. Also, the inhibition at 0.1 µM on mu receptor (setting [3]) amounted to 96%.

In turn, `CCNC(=O)CNC(=O)C(CCN1CC[C@@](C)(c2cccc(O)c2)[C@@H](C)C1)c1ccccc1` (relative stereo) [Example 15, N-ethyl-2-[[4-[4-(3-hydroxyphenyl)-3,4-dimethyl-1-piperidinyl]]-2-phenyl-1-oxobutylamino]-acetamide monohydrochloride monohydrate] had an AD50 on opioid receptor above 40. In assay [1], the “Ratio (AD50 mouse writhing test / ED50 mouse diarrhea test)” value was above 133 and it took a dose of 0.3 mg/kg to reach the 50% effect level (ED50). Besides, the Ki at mu receptor stood at 1070 pM. Also, the inhibition at 0.01 µM on mu receptor (setting [2]) came to 99%. Besides, the inhibition at 0.1 µM on mu receptor (setting [3]) came out at 100%.

On opioid receptor, `C[C@H]1CN(CC(Cc2ccccc2)C(=O)NCC(=O)OCC(=O)N(C)C)CC[C@@]1(C)c1cccc(O)c1` (relative stereo) [Example 90] yielded an AD50 of 2.2. In addition, in assay [1], the “Ratio (AD50 mouse writhing test / ED50 mouse diarrhea test)” value amounted to 22 and it took a dose of 0.1 mg/kg to reach the 50% effect level (ED50). On mu receptor (setting [4]), the inhibition at 0.01 µM was found to be 93%. In addition, on mu receptor (setting [5]), the inhibition at 0.1 µM amounted to 99%.

Consider `CCOC(=O)CN(C)C(=O)CNC(=O)C(Cc1ccccc1)CN1CC[C@@](C)(c2cccc(O)c2)[C@@H](C)C1` (relative stereo) [Example 75], for which the AD50 on opioid receptor turned out to be 5.2. Further, in assay [1], the “Ratio (AD50 mouse writhing test / ED50 mouse diarrhea test)” value stood at 71 and the 50% effect level (ED50) was put at a dose of 0.073 mg/kg. Moreover, affinity at mu receptor was put at a Ki of 1150 pM. Besides, the inhibition at 0.01 µM on mu receptor (setting [2]) was found to be 90%. Also, at mu receptor (setting [3]), the inhibition at 0.1 µM came to 99%.

Take `COc1cccc([C@]2(C)CCN(CC(Cc3ccccc3)C(=O)O)C[C@@H]2C)c1` (single isomer, unassigned) [Example 79]: the AD50 on opioid receptor amounted to 1.7. For the same molecule, in assay [1], the “Ratio (AD50 mouse writhing test / ED50 mouse diarrhea test)” value worked out at 13 and the ED50 amounted to 0.13 mg/kg. In addition, the inhibition at 0.01 µM at mu receptor (setting [4]) came out at 0%. On mu receptor (setting [5]), the inhibition at 0.1 µM worked out at 15%.
